Values quoted from earlier work, collected in patent US5162573A, “Valproic and (E)-2-valproenoic acid derivatives, and pharmaceutical compositions therefrom” (Chiesi Farmaceutici S.p.A., priority 1986, dated 1992).

Key:
[1] = oral administration of equimolecular doses, in comparison with valproic acid
[2] = in comparison with valproic acid
[3] = not given; remark: listed apart in the source

Compound	hepatic concentration [1]	anticonvulsivant activity, potency and duration of action [2]	half life in man [h]	toxic effects ([3]; in comparison with valproic acid)	hepatic tolerability / hepatic reactions ([3]; in vivo)	teratogenic effects ([3]; in vivo)
CC/C=C(\CCC)C(=O)O [valproenoic acid, (E)-2-propyl-2-pentenoic acid]	remarkably reduced hepatic concentration in comparison with valproic acid	a wide spectrum anticonvulsivant activity, a potency and a duration of action comparable to those of valproic acid	12.5	remarkably reduced toxic effects	much better tolerated at hepatic level	totally devoid of teratogenic effects
CCCC(CCC)C(=O)O [valproic acid, 2-propyl-2-pentanoic acid]	–	–	9 to 10	–	–	teratogenic effects
